From US6703349B2, “Enhanced herbicide composition” (Valent BioSciences Corporation, priority 2001, dated 2004)

Legend:
Tobacco = assay: Greenhouse spray test, phytotoxicity/herbicidal effect and re-growth rating on tobacco; format: in vivo, Nicotiana tabacum (tobacco); for 8 day phytotoxicity Rating (1 = least damage, 5 = most): COC 0.25% (v/v); for 9 day phytotoxicity Rating (1 = least damage, 5 = most): COC 0.25% (v/v)
Experimental: (§1) Ultra pure water was used in preparing solutions. For active ingredients (e.g. lactofen or flumioxazin), the active ingredient was dissolved in a small amount of solvent (dimethyl sulfoxide (DMSO) or 1-methyl-2-pyrrolidone), and then water was added. Spray solutions were used as soon as possible after mixing.
(§2) COC in water was used as the control.
(§3) After spraying, plants were allowed to dry at room temperature (about 25° C.). They were then moved to the greenhouse, and plants were arranged in a randomized complete block experimental design. Plants were evaluated for phytotoxicity/herbicidal effects at 24 hours and 7 to 9 days after spraying, assessing damage according to the following scale:
(§4) 5=100% leaf area affected
(§5) Plants were rated for re-growth at 7 to 9 days after treatment according to the following scale:
(§6) 2=75% of control regrowth
(§7) 3=50% of control regrowth
(§8) All the data were subject to an analysis of variance, and the mean separations were determined with Duncan's multiple range test at p=0.05.

Pigweed = assay: Greenhouse spray test, phytotoxicity rating on pigweed; format: in vivo, Amaranthus retroflexus (red root pigweed); for 24 hour phytotoxicity Rating (1 = least damage, 5 = most): COC 0.25% (v/v); for 9 day phytotoxicity Rating (1 = least damage, 5 = most): COC 0.25% (v/v)
Experimental: as §1, §2, §3, §4, §8

Morning glory = assay: Greenhouse spray test, phytotoxicity rating on morning glory; format: in vivo; for 24 hour phytotoxicity Rating (1 = least damage, 5 = most): COC 0.25% (v/v)
Experimental: as §1, §2, §3, §4, §8

Soybean = assay: Greenhouse spray test, phytotoxicity/herbicidal effect and re-growth rating on soybean; format: in vivo, Glycine max (soybean); for 24 hour phytotoxicity Rating (1 = least damage, 5 = most): COC 0.25% (v/v); for 8 day phytotoxicity Rating (1 = least damage, 5 = most): COC 0.25% (v/v)
Experimental: as §1, §2, §3, §4, §5, §6, §7, §8

Cocklebur = assay: Greenhouse spray test, phytotoxicity/herbicidal effect and re-growth rating on cocklebur; format: in vivo, Xanthrum strumarium (cocklebur)
Experimental: as §1, §2, §3, §4, §5, §6, §7, §8

Giant Foxtail = assay: Greenhouse spray test, phytotoxicity/herbicidal effect and re-growth rating on giant foxtail; format: in vivo, Setaria faberi (giant foxtail)
Experimental: as §1, §2, §3, §4, §5, §6, §7, §8

Lambsquarter = assay: Greenhouse spray test, phytotoxicity/herbicidal effect and re-growth rating on lambsquarter; format: in vivo, Chenopodium album (lambsquarter)
Experimental: as §1, §2, §3, §4, §5, §6, §7, §8

Waterhemp = assay: Greenhouse spray test, phytotoxicity/herbicidal effect and re-growth rating on waterhemp; format: in vivo, Amaranthus rudis (water hemp)
Burley tobacco = assay: Field test, phytotoxicity (percent leaf area affected) on Burley tobacco; format: in vivo; conditions: Burley tobacco in the field; apparent 1 day after application, persisted until day 7; summary of Table 6
[1] = Table 4, 24 hour, NaSA 1.6 g/L, Cobra 0.124 mL/L, Flumioxazin […], COC […] (v/v)
[2] = Table 4, 9 day, NaSA 1.6 g/L, Cobra 0.124 mL/L, Flumioxazin […], COC […] (v/v)
[3] = Table 2, 24 hour, NaSA 1.6 g/L, Cobra 0.124 mL/L, Lactofen 0.030 g/L, COC […] (v/v)
[4] = Table 2, 8 day, NaSA 1.6 g/L, Cobra 0.124 mL/L, Lactofen 0.030 g/L, COC […] (v/v)
[5] = Table 1, 8 day, NaSA 1.6 g/L, Cobra 0.124 mL/L, COC […] (v/v)
[6] = added to Cobra, summary of Table 1
[7] = Table 2, 8 day, NaSA 8.0 g/L, COC […] (v/v)

C#CCN1C(=O)COc2cc(F)c(N3C(=O)C4=C(CCCC4)C3=O)cc21 [Flumioxazin, flumioxazin]
24 hour phytotoxicity Rating (1 = least damage, 5 = most) (Tobacco; [1]): 3.7
9 day phytotoxicity Rating (1 = least damage, 5 = most) (Tobacco; [2]): 5.0
24 hour phytotoxicity Rating (1 = least damage, 5 = most) (Pigweed; [1]): 4.2
9 day phytotoxicity Rating (1 = least damage, 5 = most) (Pigweed; [2]): 5.0

CCOC(=O)C(C)OC(=O)c1cc(Oc2ccc(C(F)(F)F)cc2Cl)ccc1[N+](=O)[O-] (centres unmarked) [Lactofen, lactofen]
24 hour phytotoxicity Rating (1 = least damage, 5 = most) (Tobacco; [3]): 3.1
8 day new growth rating (1 = healthy new growth, 5 = no new growth) (Tobacco; [4]): 5.0
8 day phytotoxicity Rating (1 = least damage, 5 = most) (Tobacco; [4]): 4.2
24 hour phytotoxicity Rating (1 = least damage, 5 = most) (Morning glory; Table 3, 24 hour, NaSA 1.6 g/L, Cobra 0.124 mL/L, Lactofen 0.030 g/L, COC […] (v/v)): 3.3
24 hour phytotoxicity Rating (1 = least damage, 5 = most) (Soybean; [3]): 2.4
8 day new growth rating (1 = healthy new growth, 5 = no new growth) (Soybean; [4]): 2.6
8 day phytotoxicity Rating (1 = least damage, 5 = most) (Soybean; [4]): 2.7

O=C([O-])c1ccccc1O.[Na+] [NaSA, sodium salicylate]
8 day new growth rating (1 = healthy new growth, 5 = no new growth) (Cocklebur; [5]): 1.0
Synergism of Cobra activity by addition of salicylate (in words) (Cocklebur; [6]): not
8 day new growth rating (1 = healthy new growth, 5 = no new growth) (Tobacco; [5]): 1.0
8 day new growth rating (1 = healthy new growth, 5 = no new growth) (Tobacco; [4]): 1.2
8 day new growth rating (1 = healthy new growth, 5 = no new growth) (Tobacco; [7]): 4.5
Synergism of Cobra activity by addition of salicylate (in words) (Tobacco; [6]): synergized
Effect of salicylate on flumioxazin activity (in words) (Tobacco; added to flumioxazin, summary of Table 4): increase flumioxazin activity
Effect of salicylate on lactofen activity (in words) (Tobacco; added to lactofen, summary of Table 2): increase lactofen activity
Effect of salicylate on herbicidal activity of Cobra (in words) (Morning glory; added to Cobra, summary of Table 3): increases the herbicidal activity
Effect of salicylate on herbicidal activity of lactofen (in words) (Morning glory; added to lactofen, summary of Table 3): increases the herbicidal activity
8 day new growth rating (1 = healthy new growth, 5 = no new growth) (Giant Foxtail; [5]): 1.0
Synergism of Cobra activity by addition of salicylate (in words) (Giant Foxtail; [6]): not
8 day new growth rating (1 = healthy new growth, 5 = no new growth) (Soybean; [5]): 1.2
8 day new growth rating (1 = healthy new growth, 5 = no new growth) (Soybean; [4]): 2.0
8 day new growth rating (1 = healthy new growth, 5 = no new growth) (Soybean; [7]): 4.2
Synergism of Cobra activity by addition of salicylate (in words) (Soybean; [6]): not
Safening: effect of salicylate on herbicide-induced damage (in words) (Soybean; summary of Table 1): decrease and delay herbicide-induced damage
Effect of salicylate on Cobra herbicidal activity (in words) (Pigweed; added to Cobra, effect not statistically significant, summary of Table 4): increased
Effect of salicylate on flumioxazin herbicidal activity (in words) (Pigweed; added to flumioxazin, effect not statistically significant, summary of Table 4): increased
8 day new growth rating (1 = healthy new growth, 5 = no new growth) (Lambsquarter; [5]): 1.0
Synergism of Cobra activity by addition of salicylate (in words) (Lambsquarter; [6]): synergized
8 day new growth rating (1 = healthy new growth, 5 = no new growth) (Waterhemp; [5]): 1.0
Synergism of Cobra activity by addition of salicylate (in words) (Waterhemp; [6]): not
Effect of addition of salicylate on Phoenix (lactofen) herbicidal activity (in words) (Burley tobacco): increased
